Activity calls are given as the source filed them. Rule as the data show it, for most assays here: actives have a measured Kd and inactives only a lower limit.
Experiments:
[1] = target: DNA topoisomerase 2-alpha (Homo sapiens, UniProt P11388)
[2] = target: T1, Interleukin-1 receptor-associated kinase 3 (Homo sapiens, UniProt Q9Y616)
T1 sequence (Q9Y616 whole entry): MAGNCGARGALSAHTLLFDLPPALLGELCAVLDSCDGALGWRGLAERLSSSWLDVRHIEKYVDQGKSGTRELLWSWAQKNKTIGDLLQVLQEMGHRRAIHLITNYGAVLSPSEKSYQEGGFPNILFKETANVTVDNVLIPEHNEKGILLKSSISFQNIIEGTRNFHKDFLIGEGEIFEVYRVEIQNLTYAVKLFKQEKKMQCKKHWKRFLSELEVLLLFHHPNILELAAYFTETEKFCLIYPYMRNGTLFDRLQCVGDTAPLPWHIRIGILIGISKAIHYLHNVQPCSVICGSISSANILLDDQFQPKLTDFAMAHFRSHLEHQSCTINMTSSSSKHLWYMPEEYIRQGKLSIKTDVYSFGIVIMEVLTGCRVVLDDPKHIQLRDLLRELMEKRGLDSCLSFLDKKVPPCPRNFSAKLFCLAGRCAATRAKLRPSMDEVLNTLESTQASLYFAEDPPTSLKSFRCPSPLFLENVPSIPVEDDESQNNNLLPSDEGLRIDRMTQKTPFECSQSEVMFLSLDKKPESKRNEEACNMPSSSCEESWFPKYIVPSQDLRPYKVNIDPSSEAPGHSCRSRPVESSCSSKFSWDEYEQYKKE

[3] = target: Dual specificity tyrosine-phosphorylation-regulated kinase 1A (Homo sapiens, UniProt Q13627)
[4] = target: T2, Serine/threonine-protein kinase ULK1 (Homo sapiens, UniProt O75385)
T2 sequence (O75385 whole entry): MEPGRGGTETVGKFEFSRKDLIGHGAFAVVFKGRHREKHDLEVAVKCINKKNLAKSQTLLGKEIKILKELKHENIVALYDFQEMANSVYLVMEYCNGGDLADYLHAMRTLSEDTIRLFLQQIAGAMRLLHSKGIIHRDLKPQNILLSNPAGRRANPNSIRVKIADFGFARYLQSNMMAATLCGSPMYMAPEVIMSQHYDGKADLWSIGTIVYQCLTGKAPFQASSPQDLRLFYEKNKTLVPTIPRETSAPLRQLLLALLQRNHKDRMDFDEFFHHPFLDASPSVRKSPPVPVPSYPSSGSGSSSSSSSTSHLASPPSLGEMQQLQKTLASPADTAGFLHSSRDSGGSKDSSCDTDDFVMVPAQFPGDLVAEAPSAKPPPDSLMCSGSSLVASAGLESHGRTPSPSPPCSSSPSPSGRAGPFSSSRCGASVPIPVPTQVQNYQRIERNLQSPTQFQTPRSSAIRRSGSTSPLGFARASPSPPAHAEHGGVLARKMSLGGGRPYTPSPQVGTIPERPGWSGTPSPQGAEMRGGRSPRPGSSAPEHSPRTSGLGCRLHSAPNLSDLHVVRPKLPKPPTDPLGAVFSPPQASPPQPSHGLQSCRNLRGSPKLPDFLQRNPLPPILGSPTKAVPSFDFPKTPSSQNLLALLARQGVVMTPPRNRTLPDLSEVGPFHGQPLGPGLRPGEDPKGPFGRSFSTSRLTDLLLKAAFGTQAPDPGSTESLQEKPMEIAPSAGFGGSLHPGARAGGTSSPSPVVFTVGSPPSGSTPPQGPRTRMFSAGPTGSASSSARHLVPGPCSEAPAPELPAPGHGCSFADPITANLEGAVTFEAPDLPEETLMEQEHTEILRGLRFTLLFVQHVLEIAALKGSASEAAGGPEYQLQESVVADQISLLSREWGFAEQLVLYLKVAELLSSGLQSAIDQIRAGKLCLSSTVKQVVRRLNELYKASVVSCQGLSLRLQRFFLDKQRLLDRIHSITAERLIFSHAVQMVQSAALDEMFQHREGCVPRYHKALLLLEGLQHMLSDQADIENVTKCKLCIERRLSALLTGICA

[5] = target: Dual specificity protein kinase CLK2 (Homo sapiens, UniProt P49760)
[6] = target: T3, Serine/threonine-protein kinase TAO1 (Homo sapiens, UniProt Q7L7X3)
T3 sequence (Q7L7X3 whole entry): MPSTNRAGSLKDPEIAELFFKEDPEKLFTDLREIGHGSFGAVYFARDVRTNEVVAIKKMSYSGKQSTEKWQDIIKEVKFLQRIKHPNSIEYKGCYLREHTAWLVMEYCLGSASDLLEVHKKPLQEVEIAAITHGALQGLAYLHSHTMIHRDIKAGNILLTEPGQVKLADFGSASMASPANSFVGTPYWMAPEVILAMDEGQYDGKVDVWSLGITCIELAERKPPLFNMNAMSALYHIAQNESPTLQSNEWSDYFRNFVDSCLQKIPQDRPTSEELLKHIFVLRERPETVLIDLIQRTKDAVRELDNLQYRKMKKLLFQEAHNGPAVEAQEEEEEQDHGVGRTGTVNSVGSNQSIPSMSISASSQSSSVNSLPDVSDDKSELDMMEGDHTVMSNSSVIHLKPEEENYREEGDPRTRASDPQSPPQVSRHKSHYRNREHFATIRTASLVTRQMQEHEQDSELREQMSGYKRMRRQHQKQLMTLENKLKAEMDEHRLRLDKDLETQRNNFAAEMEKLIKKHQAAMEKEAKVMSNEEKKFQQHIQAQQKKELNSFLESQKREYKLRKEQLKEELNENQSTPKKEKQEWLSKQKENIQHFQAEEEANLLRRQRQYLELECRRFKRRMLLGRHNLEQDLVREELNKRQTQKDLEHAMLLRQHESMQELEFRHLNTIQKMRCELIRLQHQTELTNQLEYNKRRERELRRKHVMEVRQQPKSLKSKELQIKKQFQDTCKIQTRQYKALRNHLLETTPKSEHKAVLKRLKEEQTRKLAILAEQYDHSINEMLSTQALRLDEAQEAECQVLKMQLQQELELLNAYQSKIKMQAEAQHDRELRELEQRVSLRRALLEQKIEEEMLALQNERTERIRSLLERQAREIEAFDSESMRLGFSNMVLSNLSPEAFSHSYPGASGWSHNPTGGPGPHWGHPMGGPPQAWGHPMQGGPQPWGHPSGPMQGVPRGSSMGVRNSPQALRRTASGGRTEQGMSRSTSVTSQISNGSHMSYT

[7] = target: Tyrosine-protein kinase BTK (Homo sapiens, UniProt Q06187)
[8] = target: G protein-coupled receptor kinase 6 (Homo sapiens, UniProt P43250)
Also: in the data inactive means no Kd found up to 30 µM.

Dual specificity protein kinase CLK2, sequence (P49760 whole entry): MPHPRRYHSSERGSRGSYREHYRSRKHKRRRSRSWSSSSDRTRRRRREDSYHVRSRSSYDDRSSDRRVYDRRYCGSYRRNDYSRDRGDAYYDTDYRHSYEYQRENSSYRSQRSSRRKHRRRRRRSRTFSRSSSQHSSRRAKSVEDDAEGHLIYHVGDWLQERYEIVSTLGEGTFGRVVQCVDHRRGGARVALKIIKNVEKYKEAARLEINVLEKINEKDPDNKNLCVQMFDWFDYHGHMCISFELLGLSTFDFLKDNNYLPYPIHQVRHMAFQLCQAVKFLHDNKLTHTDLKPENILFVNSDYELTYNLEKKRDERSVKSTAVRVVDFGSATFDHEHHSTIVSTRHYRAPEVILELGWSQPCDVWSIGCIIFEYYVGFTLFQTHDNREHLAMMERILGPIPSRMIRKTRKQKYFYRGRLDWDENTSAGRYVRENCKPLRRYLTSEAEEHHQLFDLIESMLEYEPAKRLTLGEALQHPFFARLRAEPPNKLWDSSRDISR
DNA topoisomerase 2-alpha, sequence (P11388 whole entry): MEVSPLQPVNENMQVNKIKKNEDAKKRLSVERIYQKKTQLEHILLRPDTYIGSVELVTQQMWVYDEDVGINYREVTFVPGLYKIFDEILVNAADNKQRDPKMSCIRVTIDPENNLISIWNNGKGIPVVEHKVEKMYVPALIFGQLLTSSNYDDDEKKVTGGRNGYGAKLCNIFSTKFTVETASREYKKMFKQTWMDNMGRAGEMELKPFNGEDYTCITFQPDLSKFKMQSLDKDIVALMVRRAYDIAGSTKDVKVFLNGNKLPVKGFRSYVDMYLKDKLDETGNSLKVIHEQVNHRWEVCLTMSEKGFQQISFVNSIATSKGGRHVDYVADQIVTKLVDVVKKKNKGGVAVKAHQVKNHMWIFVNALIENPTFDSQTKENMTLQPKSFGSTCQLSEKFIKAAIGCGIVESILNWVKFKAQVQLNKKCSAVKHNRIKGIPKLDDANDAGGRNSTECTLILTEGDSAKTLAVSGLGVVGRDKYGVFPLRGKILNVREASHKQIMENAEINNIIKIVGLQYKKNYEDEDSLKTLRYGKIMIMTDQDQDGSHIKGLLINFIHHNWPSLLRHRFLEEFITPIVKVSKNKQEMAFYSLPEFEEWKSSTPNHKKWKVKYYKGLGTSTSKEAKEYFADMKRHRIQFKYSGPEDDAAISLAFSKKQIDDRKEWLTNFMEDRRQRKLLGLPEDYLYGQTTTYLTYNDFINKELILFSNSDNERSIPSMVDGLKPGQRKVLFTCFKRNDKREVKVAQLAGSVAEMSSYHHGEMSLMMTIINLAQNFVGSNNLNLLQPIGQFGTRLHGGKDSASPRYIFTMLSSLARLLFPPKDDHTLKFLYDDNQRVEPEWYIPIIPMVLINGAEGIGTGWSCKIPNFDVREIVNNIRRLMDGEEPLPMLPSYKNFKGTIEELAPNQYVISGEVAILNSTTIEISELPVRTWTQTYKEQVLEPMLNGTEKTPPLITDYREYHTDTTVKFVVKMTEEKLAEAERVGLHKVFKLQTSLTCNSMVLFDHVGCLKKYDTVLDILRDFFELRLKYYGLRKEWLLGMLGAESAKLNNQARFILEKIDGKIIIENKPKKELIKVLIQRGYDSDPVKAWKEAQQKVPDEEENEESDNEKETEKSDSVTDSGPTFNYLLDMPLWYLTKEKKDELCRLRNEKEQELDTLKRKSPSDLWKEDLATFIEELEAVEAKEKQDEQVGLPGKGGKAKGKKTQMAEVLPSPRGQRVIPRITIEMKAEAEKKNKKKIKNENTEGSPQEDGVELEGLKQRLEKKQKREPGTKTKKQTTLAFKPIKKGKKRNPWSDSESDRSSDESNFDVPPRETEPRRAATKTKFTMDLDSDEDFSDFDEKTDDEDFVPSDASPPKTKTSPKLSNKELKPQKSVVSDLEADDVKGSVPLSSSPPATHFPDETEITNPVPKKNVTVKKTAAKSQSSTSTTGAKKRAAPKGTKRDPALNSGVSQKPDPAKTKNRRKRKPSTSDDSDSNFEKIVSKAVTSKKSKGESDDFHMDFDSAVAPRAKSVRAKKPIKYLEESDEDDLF
G protein-coupled receptor kinase 6, sequence (P43250 whole entry): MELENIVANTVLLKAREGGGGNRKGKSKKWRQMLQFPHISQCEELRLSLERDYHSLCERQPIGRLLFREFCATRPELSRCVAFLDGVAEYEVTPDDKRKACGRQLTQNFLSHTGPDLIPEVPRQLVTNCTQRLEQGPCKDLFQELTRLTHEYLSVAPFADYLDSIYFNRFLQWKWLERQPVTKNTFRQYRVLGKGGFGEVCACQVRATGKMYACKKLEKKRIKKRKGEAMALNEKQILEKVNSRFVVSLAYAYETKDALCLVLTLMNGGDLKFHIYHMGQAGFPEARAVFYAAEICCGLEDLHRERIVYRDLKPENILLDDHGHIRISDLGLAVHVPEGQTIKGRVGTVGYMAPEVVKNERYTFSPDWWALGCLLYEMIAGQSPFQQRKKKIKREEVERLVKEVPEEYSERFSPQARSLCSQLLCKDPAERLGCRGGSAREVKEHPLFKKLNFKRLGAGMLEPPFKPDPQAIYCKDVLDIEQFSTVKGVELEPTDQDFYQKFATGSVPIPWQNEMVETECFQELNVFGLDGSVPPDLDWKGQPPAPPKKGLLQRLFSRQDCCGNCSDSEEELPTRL
Tyrosine-protein kinase BTK, sequence (Q06187 whole entry): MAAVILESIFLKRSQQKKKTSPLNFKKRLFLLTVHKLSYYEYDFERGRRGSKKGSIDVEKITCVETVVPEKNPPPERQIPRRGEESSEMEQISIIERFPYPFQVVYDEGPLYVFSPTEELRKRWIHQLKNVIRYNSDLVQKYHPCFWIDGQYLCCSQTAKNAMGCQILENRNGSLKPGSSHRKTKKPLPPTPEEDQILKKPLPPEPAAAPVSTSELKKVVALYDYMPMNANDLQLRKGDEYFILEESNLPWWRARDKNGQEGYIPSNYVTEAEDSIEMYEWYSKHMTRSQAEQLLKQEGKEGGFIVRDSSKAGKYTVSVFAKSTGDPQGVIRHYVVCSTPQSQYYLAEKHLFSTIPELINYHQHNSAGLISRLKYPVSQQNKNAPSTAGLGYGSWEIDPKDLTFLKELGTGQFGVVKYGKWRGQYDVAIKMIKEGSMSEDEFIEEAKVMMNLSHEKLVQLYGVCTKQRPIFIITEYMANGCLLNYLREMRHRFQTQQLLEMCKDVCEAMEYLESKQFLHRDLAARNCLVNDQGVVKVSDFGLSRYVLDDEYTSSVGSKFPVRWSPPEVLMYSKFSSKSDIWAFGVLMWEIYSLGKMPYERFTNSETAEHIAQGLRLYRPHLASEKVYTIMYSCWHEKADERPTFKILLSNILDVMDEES

Kd [1]	Kd [2]	Kd [3]	Kd [4]	Kd [5]	Kd [6]	Kd [7]	Kd [8]	SMILES
> 30 µM (inactive)	> 30 µM (inactive)	> 30 µM (inactive)	> 30 µM (inactive)	> 30 µM (inactive)	1.09 µM (active)	> 30 µM (inactive)	> 30 µM (inactive)	Cc1nc2cc(-c3nn(C(C)C)c4ncnc(N)c34)ccc2o1
> 30 µM (inactive)	> 30 µM (inactive)	> 30 µM (inactive)	> 30 µM (inactive)	> 30 µM (inactive)	> 30 µM (inactive)	> 30 µM (inactive)	> 30 µM (inactive)	Nc1ncnc2c1c(-c1cccc(OCc3ccccc3)c1)cn2[C@H]1C[C@@H](CN2CCC2)C1 [AEW-541]
> 30 µM (inactive)	> 30 µM (inactive)	2.45 µM (active)	> 30 µM (inactive)	> 30 µM (inactive)	2.22 µM (active)	0.537 µM (active)	13.6 µM	O=C(Nc1c[nH]nc1-c1nc2cc(CN3CCOCC3)ccc2[nH]1)NC1CC1 [AT-9283]
> 30 µM (inactive)	> 30 µM (inactive)	> 30 µM (inactive)	> 30 µM (inactive)	> 30 µM (inactive)	> 30 µM (inactive)	0.345 µM (active)	> 30 µM (inactive)	C=CC(=O)Nc1cc2c(Nc3ccc(F)c(Cl)c3)ncnc2cc1C#CC(C)(C)N1CCN(C)CC1 [AV-412 FREE BASE]
> 30 µM (inactive)	> 30 µM (inactive)	> 30 µM (inactive)	> 30 µM (inactive)	> 30 µM (inactive)	> 30 µM (inactive)	> 30 µM (inactive)	> 30 µM (inactive)	Cc1cc(C(=O)NOCCO)c(Nc2ccc(I)cc2F)n(C)c1=O [AZD-8330]
> 30 µM (inactive)	> 30 µM (inactive)	> 30 µM (inactive)	> 30 µM (inactive)	> 30 µM (inactive)	> 30 µM (inactive)	> 30 µM (inactive)	> 30 µM (inactive)	COc1cc2ncnc(Oc3cccc(NC(=O)Nc4cc(C(C)(C)C(F)(F)F)on4)c3)c2cc1OC [CEP-32496]
> 30 µM (inactive)	> 30 µM (inactive)	> 30 µM (inactive)	> 30 µM (inactive)	> 30 µM (inactive)	> 30 µM (inactive)	> 30 µM (inactive)	> 30 µM (inactive)	Cc1cc(Nc2ncc(Cl)c(Nc3ccccc3S(=O)(=O)C(C)C)n2)c(OC(C)C)cc1C1CCNCC1 [CERITINIB]
> 30 µM (inactive)	> 30 µM (inactive)	> 30 µM (inactive)	> 30 µM (inactive)	> 30 µM (inactive)	> 30 µM (inactive)	> 30 µM (inactive)	> 30 µM (inactive)	COCC(=O)NC/C=C/c1ccc2ncnc(Nc3ccc(Oc4ccc(C)nc4)c(C)c3)c2c1 [CP-724714]
> 30 µM (inactive)	> 30 µM (inactive)	> 30 µM (inactive)	> 30 µM (inactive)	> 30 µM (inactive)	> 30 µM (inactive)	> 30 µM (inactive)	> 30 µM (inactive)	C#Cc1cccc(Nc2ncnc3cc(OC)c(OCCCCCCC(=O)NO)cc23)c1 [CUDC-101]
> 30 µM (inactive)	> 30 µM (inactive)	> 30 µM (inactive)	> 30 µM (inactive)	> 30 µM (inactive)	> 30 µM (inactive)	> 30 µM (inactive)	> 30 µM (inactive)	Cc1cccc(-c2nn3c(c2-c2ccnc4ccc(C(N)=O)cc24)CCC3)n1 [GALUNISERTIB]
> 30 µM (inactive)	> 30 µM (inactive)	> 30 µM (inactive)	> 30 µM (inactive)	> 30 µM (inactive)	> 30 µM (inactive)	> 30 µM (inactive)	> 30 µM (inactive)	COc1ccc(S(=O)(=O)N(C(C)=O)c2ccccc2/C=C/c2cc[n+]([O-])cc2)cc1 [HMN-214]
> 30 µM (inactive)	> 30 µM (inactive)	> 30 µM (inactive)	> 30 µM (inactive)	> 30 µM (inactive)	> 30 µM (inactive)	> 30 µM (inactive)	> 30 µM (inactive)	CNC(=O)c1cccc2cc(Oc3ccnc4cc(OCC5(N)CC5)c(OC)cc34)ccc12 [LUCITANIB]
> 30 µM (inactive)	> 30 µM (inactive)	> 30 µM (inactive)	> 30 µM (inactive)	> 30 µM (inactive)	> 30 µM (inactive)	> 30 µM (inactive)	> 30 µM (inactive)	NC1(c2ccc(-c3nc4ccn5c(=O)[nH]nc5c4cc3-c3ccccc3)cc2)CCC1 [MK-2206]
> 30 µM (inactive)	> 30 µM (inactive)	> 30 µM (inactive)	> 30 µM (inactive)	> 30 µM (inactive)	> 30 µM (inactive)	> 30 µM (inactive)	> 30 µM (inactive)	FC(F)(F)c1ccc(/C=C/c2nc(COc3ccc(CCCCn4ccnn4)cc3)co2)cc1 [MUBRITINIB]
> 30 µM (inactive)	3.03 µM (active)	> 30 µM (inactive)	> 30 µM (inactive)	> 30 µM (inactive)	> 30 µM (inactive)	> 30 µM (inactive)	> 30 µM (inactive)	COc1ncc(-c2ccc3nccc(-c4ccnnc4)c3c2)cc1NS(=O)(=O)c1ccc(F)cc1F [OMIPALISIB]

SMILES	Kd [1]	Kd [2]	Kd [3]	Kd [4]	Kd [5]	Kd [6]	Kd [7]	Kd [8]
O=C(Nc1cc(C(F)(F)F)cc(C(F)(F)F)c1)c1cc(Cl)ccc1O [IMD-0354]	> 30 µM (inactive)	> 30 µM (inactive)	> 30 µM (inactive)	> 30 µM (inactive)	> 30 µM (inactive)	> 30 µM (inactive)	> 30 µM (inactive)	> 30 µM (inactive)
